Read-outs that look alike come from different tables or passages of the source.

Experimental findings from US11192967B1, “Thermosetting polyimides derived from resveratrol” (The United States of America, as represented by the …, priority 2017, dated 2021) are described below.

One series can be described thus: Mutagenicity (Ames test). It counts as cell-based. The procedure:
(§1) Toxicity Testing. In vitro toxicity tests were conducted for compounds 1-3.

The nature of a further series: Aquatic toxicity. The conditions noted are these: for Aquatic toxicity (in words): 1 and 2 compared to MDA. The procedure: as §1
The next series in a line: LD50 (toxicity testing). The conditions noted are these: listed among in vitro toxicity test results.
Another series can be described thus: In vitro cytotoxicity. It counts as cell-based. Particulars: concentration at which cytotoxicity was observed; solubility limit 10 μg/mL for 3. The procedure:
as §1

The term LD50 denotes the dose at which mortality reaches 50%. For the compound `Nc1ccc(Cc2ccc(N)cc2)cc1` [MDA, Methylene dianiline, reference compound], the “Mutagenicity (Ames test)” value in “Mutagenicity (Ames test)” was “Mutagenic”. For the same compound, the “Aquatic Toxicity” value in “Aquatic toxicity” is recorded as 14.30 mg/L. In “LD50 (toxicity testing)”, this compound gave a 50% lethal dose (LD50) of 944 mg/kg.

Turning to `Nc1ccc(CCc2cc(N)cc(N)c2)cc1` [compound 2], the Cytotoxicity entry in “In vitro cytotoxicity” was “>/=3.2 μg/mL”. In addition, the “Mutagenicity (Ames test)” value in “Mutagenicity (Ames test)” was “Mutagenic”. Moreover, in “Aquatic toxicity”, the “Aquatic Toxicity” value stood at 52.7 mg/L and the “Aquatic toxicity (in words)” value is reported as “substantially reduced aquatic toxicity compared to MDA”. Also, in the series “LD50 (toxicity testing)” (read-out: LD50), the LD50 worked out at 820 mg/kg.

On to `Nc1ccc(Oc2ccc(CCc3cc(Oc4ccc(N)cc4)cc(Oc4ccc(N)cc4)c3)cc2)cc1` [compound 3], for which, in “In vitro cytotoxicity”, the Cytotoxicity entry is given as “None observed”. In the series “Mutagenicity (Ames test)”, the “Mutagenicity (Ames test)” value was “Not mutagenic”. The “Mutagenicity (Ames test)” value in “Mutagenicity (Ames test)” (listed as Compound 3) is “not mutagenic”. In “Aquatic toxicity”, the “Aquatic Toxicity” value is more than 2000 mg/L and the “Aquatic toxicity (in words)” value is recorded as “remarkably low aquatic toxicity”. Further, the LD50 in “LD50 (toxicity testing)” (read-out: LD50) stood at 568 mg/kg.

Regarding `Nc1ccc(/C=C/c2cc(N)cc(N)c2)cc1` [compound 1, (E)-5-(4-aminostyryl)benzene-1,3-diamine], the Cytotoxicity result in “In vitro cytotoxicity” is reported as “>/=3.2 μg/mL”. In addition, the “Mutagenicity (Ames test)” value in “Mutagenicity (Ames test)” is listed as “Mutagenic”. Also, in “Aquatic toxicity”, the “Aquatic Toxicity” value came out at 1153 mg/L and the “Aquatic toxicity (in words)” value is recorded as “substantially reduced aquatic toxicity compared to MDA”. Moreover, in the series “LD50 (toxicity testing)” (read-out: LD50), the median lethal dose (LD50) is 301 mg/kg.
